From US20230200390A1, “SELECTIVE HERBICIDES BASED ON SUBSTITUTED ISOXAZOLIN CARBOXAMIDES AND MEFENPYR-DIETHYL” (BAYER AKTIENGESELLSCHAFT, priority 2020, published 2023)

How the values were obtained:
Format in all cases: in vivo
[1] = tested on: spring barley, HORVS Montoya; test: Tank-mix; post-emergence: crop damage by herbicide with/without safener mefenpyr-diethyl
Method: (§1) Seeds of crops (spring wheat, TRZAS; spring barley, HORVS; maize, ZEAMA) were placed in sandy loam soil in peat pots, covered with soil and cultivated in a greenhouse under good growth conditions. Two to three weeks after sowing, the test plants were treated at the 1 to 3-leaf stage. The herbicide/safener active compound combinations according to the invention, formulated as wettable powders or emulsion concentrates, and, in parallel tests, the correspondingly formulated individual active compounds were sprayed onto the green parts of the plants in various dosages using an amount of water of 300 l/ha (converted).
(§2) The pots were returned under good growing conditions in a glasshouse and a visual assessment of herbicidal effects was made at intervals from 1 to 3 weeks after herbicide application (DAT=days after treatment). Assessment was on a percentage basis in comparison with untreated control plants (0%=no injury, 100%=complete kill).

[2] = tested on: spring wheat, TRZAS Triso; test: as above; settings: 10 DAT
Method: as §1, §2

[3] = tested on: spring barley, HORVS Montoya; test: Seed treatment with safener; post-emergence herbicide, crop damage; settings: for HER effect + SAF / Reduction [%] / Reduction [Difference]: mefenpyr-diethyl 0.5 g a.i./kg seed
Source text: (§3) For safener seed treatment trials, sufficient seed amounts of the respective crops (spring wheat (TRZAS); spring barley (HORVS)) were weighed into screw cap glass bottles with a minimum volume trice of the seeds.
(§4) As a first step, specified safeners formulated as wettable powder (WP) or wettable granules (WG) were weighed out for the required dosages (g a.i./kg seed), corresponding to the seed amounts. The safener amounts were mixed with a coloured slurry blind formulation type, prediluted with milk at 3.5% fat rate (25 mgs slurry formulation plus 2 ml milk per 10 grams of seed). A tube roller was used for coating. The solutions were gradually pipetted each on the rotating seeds followed by coating for min. 3 hours until all liquid had been soaked up by the seeds. Thereafter, the coated seeds were put flat on open trays for drying over night at room temperature.
(§5) Treated seeds were then placed into pots (7 cm diameter) on the surface of sandy loam, pressed down, flat covered with additional soil and finally covered with sandy soil, also pressed down, watered, and kept under good growth conditions in a greenhouse, until the plants had reached 2-leaf-stage (BBCH 12).
(§6) At that stage, post-emergence application of the specified herbicides was done on:
(§7) a) pot sets containing plants with safener-coated seeds as described above,
(§8) b) as a reference, pot sets of plants without seed treatment.
(§9) The herbicides were formulated as wettable powder (WP). Equivalent to the spray area, compound amounts were weighed out and diluted related to the water application rate (300 l/ha) to an aqueous suspension plus additive (1 l/ha MERO). Dosage related equivalents were conventionally sprayed on trays with the potted plants.
(§10) After application, the test plants were kept under good growth conditions in a greenhouse.
(§11) Assessment timings were 10 and 21 days after treatment (DAT) with the herbicide, by visual scoring of the crop damage in % (comparison of untreated with treated plants, either sprayed only with herbicide or with herbicide on plants with treated seeds).

[4] = tested on: spring wheat, TRZAS Triso; test: as above; settings: 10 DAT; for HER effect + SAF [%] (crop damage) / Reduction [%] / Reduction [Difference]: mefenpyr-diethyl 0.5 g a.i./kg seed; for HER effect [%] (crop damage, herbicide without safener): no safener
Source text: as §3, §4, §5, §6, §7, §8, §9, §10, §11

[5] = HER 8 g a.i./ha + mefenpyr-diethyl 50 g a.i./ha, 10 DAT
[6] = herbicide alone 8 g a.i./ha, 10 DAT
[7] = HER 6 g a.i./ha + mefenpyr-diethyl 50 g a.i./ha
[8] = HER 24 g a.i./ha + mefenpyr-diethyl 100 g a.i./ha
[9] = HER 8 g a.i./ha post-emergence, 10 DAT
[10] = HER 32 g a.i./ha post-emergence, 10 DAT
[11] = herbicide alone 8 g a.i./ha post-emergence, 10 DAT
[12] = herbicide alone 32 g a.i./ha post-emergence, 10 DAT
[13] = HER 8 g a.i./ha + mefenpyr-diethyl 50 g a.i./ha
[14] = HER 8 g a.i./ha + mefenpyr-diethyl 50 g a.i./ha, 21 DAT
[15] = HER 32 g a.i./ha + mefenpyr-diethyl 100 g a.i./ha, 21 DAT
[16] = HER 32 g a.i./ha + mefenpyr-diethyl 100 g a.i./ha
[17] = HER 8 g a.i./ha post-emergence, 21 DAT
[18] = HER 32 g a.i./ha post-emergence, 21 DAT

CC1(C(=O)NC2CC=C(C(=O)NS(C)(=O)=O)C2)CC(c2cc(F)cc(F)c2)=NO1 (mixture of isomers) [Example 1.61]
HER effect + SAF [1, 5]: 30% | Reduction [%] [1, 5]: 40% | Reduction [Difference] [1, 5]: 20 | HER effect [1, 6]: 50% | HER effect + SAF [2, 7]: 10% | Reduction [%] [2, 7]: 80% | Reduction [Difference] [2, 7]: 40 | HER effect + SAF [2, 8]: 20% | Reduction [%] [2, 8]: 60% | Reduction [Difference] [2, 8]: 30 | HER effect ([2]; herbicide alone 6 g a.i./ha): 50% | HER effect ([2]; herbicide alone 24 g a.i./ha): 50% | HER effect + SAF [3, 9]: 10% | Reduction [%] [3, 9]: 80% | Reduction [Difference] [3, 9]: 40 | HER effect + SAF [3, 10]: 20% | Reduction [%] [3, 10]: 67% | Reduction [Difference] [3, 10]: 40 | HER effect [3, 11]: 50% | HER effect [3, 12]: 60% | HER effect + SAF [%] (crop damage) ([4]; HER dose 8 g a.i./ha): 10% | Reduction [%] ([4]; HER dose 8 g a.i./ha): 80% | Reduction [Difference] ([4]; HER dose 8 g a.i./ha): 40 | HER effect [%] (crop damage, herbicide without safener) ([4]; HER dose 8 g a.i./ha): 50%

C=CC1(C(=O)NC2COC(C(=O)OCCOC)C2)CC(c2cc(C)cc(F)c2)=NO1 (mixture of isomers) [Example 1.65]
HER effect + SAF [1, 5]: 20% | Reduction [%] [1, 5]: 75% | Reduction [Difference] [1, 5]: 60 | HER effect [1, 6]: 80% | HER effect + SAF [2, 13]: 0% | Reduction [%] [2, 13]: 100% | Reduction [Difference] [2, 13]: 20 | HER effect ([2]; herbicide alone 8 g a.i./ha): 20% | HER effect + SAF [3, 9]: 20% | Reduction [%] [3, 9]: 75% | Reduction [Difference] [3, 9]: 60 | HER effect + SAF [3, 10]: 50% | Reduction [%] [3, 10]: 38% | Reduction [Difference] [3, 10]: 30 | HER effect [3, 11]: 80% | HER effect [3, 12]: 80% | HER effect + SAF [%] (crop damage) ([4]; HER dose 8 g a.i./ha): 0% | Reduction [%] ([4]; HER dose 8 g a.i./ha): 100% | Reduction [Difference] ([4]; HER dose 8 g a.i./ha): 20 | HER effect [%] (crop damage, herbicide without safener) ([4]; HER dose 8 g a.i./ha): 20%

C=CC1(C(=O)NC2COC(C(=O)OC)C2)CC(c2cc(C)cc(F)c2)=NO1 (mixture of isomers) [Example 1.71]
HER effect + SAF [1, 14]: 20% | Reduction [%] [1, 14]: 60% | Reduction [Difference] [1, 14]: 30 | HER effect + SAF [1, 15]: 50% | Reduction [%] [1, 15]: 29% | Reduction [Difference] [1, 15]: 20 | HER effect ([1]; herbicide alone 8 g a.i./ha, 21 DAT): 50% | HER effect ([1]; herbicide alone 32 g a.i./ha, 21 DAT): 70% | HER effect + SAF [2, 13]: 0% | Reduction [%] [2, 13]: 100% | Reduction [Difference] [2, 13]: 50 | HER effect + SAF [2, 16]: 20% | Reduction [%] [2, 16]: 76% | Reduction [Difference] [2, 16]: 65 | HER effect ([2]; herbicide alone 8 g a.i./ha): 50% | HER effect ([2]; herbicide alone 32 g a.i./ha): 85% | HER effect + SAF [3, 17]: 30% | Reduction [%] [3, 17]: 40% | Reduction [Difference] [3, 17]: 20 | HER effect + SAF [3, 18]: 40% | Reduction [%] [3, 18]: 43% | Reduction [Difference] [3, 18]: 30 | HER effect ([3]; herbicide alone 8 g a.i./ha post-emergence, 21 DAT): 50% | HER effect ([3]; herbicide alone 32 g a.i./ha post-emergence, 21 DAT): 70% | HER effect + SAF [%] (crop damage) ([4]; HER dose 8 g a.i./ha): 0% | Reduction [%] ([4]; HER dose 8 g a.i./ha): 100% | Reduction [Difference] ([4]; HER dose 8 g a.i./ha): 50 | HER effect [%] (crop damage, herbicide without safener) ([4]; HER dose 8 g a.i./ha): 50% | HER effect + SAF [%] (crop damage) ([4]; HER dose 32 g a.i./ha): 0% | Reduction [%] ([4]; HER dose 32 g a.i./ha): 100% | Reduction [Difference] ([4]; HER dose 32 g a.i./ha): 85 | HER effect [%] (crop damage, herbicide without safener) ([4]; HER dose 32 g a.i./ha): 85%
